Test results as given in PMC4552634, “A New Set of Chemical Starting Points with Plasmodium falciparum Transmission-Blocking Potential for Antimalarial Drug Discovery” (PLoS ONE, 2015).
Read-outs that look alike come from different tables or passages of the source.

Experiments:
[1] = tested on: luciferase reaction (BacTiter-Glo); assay: Interference assay (inhibition of the BacTiter-Glo luciferase reaction); type: biochemical; design: concentration or dose not given beside the values; settings: ATP interference assay
Description: To discard possible false-positive results, we performed an interference assay in parallel. […] […]. The ATP solution was made by dissolving ATP powder (ATP standard from the ATPlite 1 step assay kit, reference 6016731, Perkin Elmer) in culture medium. The positive control used was the Luciferase Inhibitor I Calbiochem (Merck, 119113) at 100 μM.

[2] = tested on: P. falciparum stage V gametocytes; assay: Gametocytocidal ATP bioluminescence assay (single point 5 μM and 1 μM, dose-response); type: cell-based, Plasmodium falciparum; settings: for Ratio IC50 HepG2/IC50 P. falciparum: IC50 HepG2 divided by IC50 P. falciparum gametocytes
Description: Purified stage IV-V gametocytes were obtained as previously described [10]. Single point ATP bioluminescence assay and dose–response of positive hits was determined in accordance with the previously published protocol [10].

[3] = tested on: P. falciparum asexual stages; settings: asexual stages; TCAMS data; read-out: IC50 asexual; cited from earlier work
HepG2 cells = assay: Cytotoxicity in HepG2 cells (intracellular ATP, ATPlite, 48 h); type: cell-based, human; settings: HepG2 cells; IC50 per ratio column head; unit inferred
[4] = P. falciparum gametocytes, average, read-out: IC50 Pf Gametocytes average, IC50 (µM) average
[5] = sexual stages (gametocytes), dose-response, read-out: IC50 sexual

Row | SMILES | % Control luminiscence [1] | Ratio IC50 HepG2/IC50 P. falciparum [2] | IC50 [2, 4] | IC50 [3] | IC50 (HepG2 cells) | IC50 [2, 5]
1 | O=C(NCCCCN1CCC(c2ccc3c(c2OCCO)CCCC3)CC1)c1ccc2oc(-c3ccc(C(F)(F)F)cc3)cc2c1 [TCMDC-138771] | 97% | 10 | 0.63 µM | 340 nM | 6590 nM | 
2 | Cc1cc(F)ccc1-c1nc(NCC(O)CNCCc2ccccc2)nc2c1ccc(=O)n2-c1c(F)cccc1F (stereo not drawn) [TCMDC-141784] | 100% | 37 | 0.23 µM | 539 nM | 8470 nM | 
3 | Cc1ccccc1OCC(O)CNC1CCC(NCC(O)COc2ccccc2C)CC1 (stereo not drawn) [TCMDC-125142] | 99% | 26 | 0.14 µM | 1190 nM | 3780 nM | 0.144 µM
4 | COc1ccc(CCNCCCCNCCc2ccc(OC)c3ccccc23)c2ccccc12 [TCMDC-137961] | 95% | <0.6 | > 5 µM | 453 nM | 3140 nM | 
5 | COc1ccccc1-c1cccc(-c2cccc(NC(=O)c3ccc([N+](=O)[O-])o3)c2)n1 [TCMDC-124800] | 100% | 7 | 1.66 µM | 603 nM | 11500 nM | 1.66 µM
6 | O=C(COc1ccccc1)N(Cc1ccc(-c2ccc(CNC3Cc4ccccc4C3)cc2)cc1)C1CCNCC1 [TCMDC-141450] | 100% | 8 | 0.99 µM | 1010 nM | 7800 nM | 0.987 µM
7 | C[C@H]1CN(Cc2cccc(-c3cc(CNC(=O)c4cccc(CC5CCN(C)CC5)c4)ccc3F)c2)CCN1C [TCMDC-136349] | 100% | 8 | 0.85 µM | 1090 nM | 6970 nM | 
8 | COc1ccc(OC)c(-c2cccc(-c3cccc(NC(=O)c4ccc([N+](=O)[O-])o4)c3)n2)c1 [TCMDC-124799] | 100% | 8 | 0.78 µM | 371 nM | 6150 nM | 
9 | CCCCCCCN1CC[C@@H](CCCc2ccnc3ccc(OCCN4CCNCC4)cc23)[C@@H](CC)C1 [TCMDC-139817] | 94% | 12 | 0.57 µM | 771 nM | 6750 nM | 0.567 µM
10 | COc1ccc(-c2cnn3ccc(Nc4cc(OC)c(OC)c(OC)c4)nc23)cc1OC [TCMDC-134383] | 100% | 8 | 1.62 µM | 650 nM | 12900 nM | 1.62 µM
11 | c1ccc2c(C3CCN(CCCCOc4ccc5c(c4)CCN(CC4CC4)CC5)CC3)c[nH]c2c1 [TCMDC-136244] | 100% | 10 | 0.71 µM | 982 nM | 6810 nM | 
12 | O=C(Nc1ccc(N2CCNCC2)cc1)c1ccn2ncc(-c3cccc(Cl)c3)c2n1 [TCMDC-132663] | 95% | 6.35 | 3.5 µM | 922 nM | 22200 nM | 
13 | Cc1ccc(C(=O)Nc2ccc(Nc3ccnc4cc(-c5ccccn5)ccc34)cc2O)cc1 [TCMDC-138205] | 100% | 6.48 | 0.48 µM | 111 nM | 3110 nM | 
14 | CN1CCN(CCCNCc2cccc(Nc3nccc(Nc4ccc(Oc5ccccc5)cc4)n3)c2)CC1 [TCMDC-138616] | 100% | 16 | 0.32 µM | 765 nM | 5170 nM | 
15 | CC(C)CNCc1cccc(-c2ccc(CN(CCCN3CCN(C)CC3)C(=O)/C=C/c3ccccc3)cc2)c1 [TCMDC-140545] | 100% | 11 | 0.63 µM | 857 nM | 6650 nM | 
16 | CN1CCN(CCCN(Cc2ccc(-c3ccc(CNC4CCCC4)cc3)cc2)C(=O)CCC2CCCC2)CC1 [TCMDC-140560] | 100% | 11 | 0.53 µM | 886 nM | 6000 nM | 0.535 µM
17 | C[C@H](Cc1ccc(OCCCCCOc2ccc(C[C@@H](C)NC[C@H](O)c3cccc(Cl)c3)cc2)cc1)NC[C@H](O)c1cccc(Cl)c1 [TCMDC-131563] | 100% | 3.25 | 0.55 µM | 190 nM | 1790 nM | 
18 | CCCOc1ccc(CCNCCCCNCCc2ccc(OCCC)c3ccccc23)c2ccccc12 [TCMDC-137952] | 100% | 31 | 0.08 µM | 917 nM | 2600 nM | 0.083 µM
19 | COc1cc2c(cc1CCNCCCCNCCc1cc3c(cc1OC)CCCC3)CCCC2 [TCMDC-137319] | 85% | <19 | 0.08 µM | 996 nM | < 1560 nM | 0.084 µM
20 | CN(C)Cc1ccc(-c2cccc(Nc3nccc(NCC(O)c4ccccc4)n3)c2)cc1 (stereo not drawn) [TCMDC-136467] | 100% | 6.52 | 0.9 µM | 373 nM | 5870 nM | 
21 | COc1ccc(C[C@H](N)C(=O)N[C@H]2[C@@H](O)[C@H](n3cnc4c(N(C)C)ncnc43)O[C@@H]2CO)cc1 [TCMDC-123927] | 100% | 4 | 0.65 µM | 299 nM | 2690 nM | 0.647 µM
22 | Fc1ccc(OC2CN(c3nccc(NCc4ccccc4Cl)n3)C2)cc1 [TCMDC-135110] | 98% | >10 | 2.51 µM | 898 nM | > 25000 nM | 2.51 µM
23 | N=c1n(CCN2CCCCC2)c2ccccc2n1CC(O)c1ccc(Cl)c(Cl)c1 (stereo not drawn) [TCMDC-124064] | 100% | 1.59 | 3.27 µM | 320 nM | 5200 nM | 3.27 µM
24 | Cc1cc(-c2cccc(CNC3CCCC3)c2)ccc1S(=O)(=O)NCCN1CCCC1 [TCMDC-132279] | 100% | 6 | 1.24 µM | 1240 nM | 7500 nM | 1.24 µM
25 | CCN(CC)CCN(Cc1ccc(-c2ccc(C(F)(F)F)cc2)cc1)C(=O)c1ccc(-c2ccc(NC(=O)OC)cc2C)cc1 [TCMDC-141558] | 100% | 1.46 | 3.71 µM | 929 nM | 5400 nM | 3.71 µM
26 | Nc1ncc(-c2ccc3nccc(-c4ccncc4)c3c2)cc1S(=O)(=O)N1CCCCC1 [TCMDC-134265] | 100% | >12 | 2.07 µM | 581 nM | > 25000 nM | 2.07 µM
27 | CNCCNc1nccc(N2CCc3ncnc(Nc4ccc(OCc5cccc(F)c5)c(Cl)c4)c3C2)n1 [TCMDC-135478] | 98% | 11 | 0.67 µM | 197 nM | 7160 nM | 0.665 µM
